Data published in patent US8715658B2, “Methods for treating conditions mediated by the inflammatory cytokine cascade using GAPDH inhibitors” (The Feinstein Institute for Medical Research, priority 2009, dated 2014).

How the values were obtained:
Peritoneal macrophages = test: TNF response of peritoneal macrophages from wildtype, TLR2, TLR4 or RAGE deficient mice to GAPDH; assay type: cell-based; details: FIG. 3; for TNF release: 50 μg/ml GAPDH
Procedure: Peritoneal macrophages harvested from Wildtype, Toll-like receptor (TLR) 2, TLR4, or Receptor for Advanced Glycation Endproducts (RAGE) deficient mice were resuspended in RPMI1640 medium (Gibco) supplemented with 10% FBS and 2 mM L-glutamine, and 100 μg/ml penicillin and streptomycin, and plated at 1×10^6 cells/well into 24-well Primaria tissue culture plates (Falcon). Cultures were maintained for 24 h at 37° C. under 5% CO2. 30 minutes prior to experimentation, culture medium was replaced by serum free Opti-MEM I medium, and all treatments were conducted in serum free Opti-MEM I medium as described.
RAW264.7 cells at approximately 70% confluence were kept in serum-free Opti-MEM I for 20 minutes prior to treatments. Cells were challenged with a concentration range of purified recombinant GAPDH (produced on site) to determine concentration-dependent responsiveness of inflammatory mediator production. The concentration range consisted of seven concentrations of GAPDH in a five-fold dilution series (50 μg/ml, 10 μg/ml, 2 μg/ml, 0.4 μg/ml, 0.08 μg/ml, 0.016 μg/ml, 0 μg/ml). Cells were incubated at 37° C. and 5% CO2 for 4 hours (TNF). After treatment, the media was harvested and transferred to tubes, and M-cell lysis reagent was applied to the cells. […] The media samples were applied to Enzyme-Linked ImmunoSorbent Assays (ELISA) directed against mouse-TNF (all ELISA reagents were obtained from R+D systems). These ELISA plates were set up and run according to the manufacturer's recommendations. Briefly, samples were incubated overnight in the ELISA plate on a rocker at 4° C. Plates were washed 3× with phosphate-buffered saline supplemented with 0.05% TWEEN-20, and detection antibody diluted at 1:2000 in 1% bovine serum albumin (BSA) was applied to the plates for 2 hours. The plates were washed again as above, and strepavidin-HRP diluted at 1:2000 in 1% BSA was applied to the plates for 15 minutes. The plates were washed again as above, then developed by applying substrate reagent to each well. Reactions were stopped by adding 2M H2SO4 when the standard curve had become obvious, typically 8 to 10 minutes.

IκBα = test: RAW264.7 cells challenged with GAPDH or LPS, IκBα degradation (NF-κB pathway) by Western blot; assay type: cell-based, murine; details: 50 μg/ml GAPDH or 20 ng/ml LPS, time-course 0-180 min, FIG. 4
Procedure: (§1) RAW264.7 cells at approximately 70% confluence were kept in serum-free Opti-MEM I for 20 minutes prior to treatments. Cells were challenged with either GAPDH or LPS in a time-course with […] time points (180 min, 120 min, 60 min, 30 min, 15 min, and 0 min). The GAPDH treatment consisted of purified GAPDH diluted to 50 μg/ml in Opti-MEM I. The LPS treatment consisted of LPS (sonicated approximately 30 minutes before use) diluted to 20 ng/ml into Opti-MEM I. Treatments used for time-course experiments were incubated in a 37° C. water bath to maintain culture temperature between time points and sonicated for five minutes before use. […] Bound IκBα antibody was detected using a 1:2000 dilution of HRP-conjugated anti-mouse IgG in 2.5% milk; bound JNK antibody was detected using a 1:2000 dilution of HRP-conjugated anti-rabbit IgG in 2.5% milk. […]
(§2) RAW264.7 macrophage-like cells were challenged with either 50 μg/ml GAPDH or 20 ng/ml LPS in a time-course consisting of six time points ranging from 180 min to 0 min. […] Protein assays were conducted on cell lysates in order to standardize the quantity of protein loaded into each well of SDSPAGE gels for separation. […]

JNK = test: RAW264.7 cells challenged with GAPDH or LPS, JNK activation by Western blot; assay type: cell-based, murine; details: 50 μg/ml GAPDH or 20 ng/ml LPS
Procedure: as §1, §2

human whole blood = test: Human whole blood assay, plasma TNF by ELISA; assay type: cell-based
Procedure: Human whole blood was obtained from anonymous donors from the Long Island Blood Services. The blood was aliquotted into 48-well plates at 250 μl/well. Aliquots were then treated as indicated at 37° C. for four hours. Samples were centrifuged to separate plasma at 5000 rpm for five minutes at room temperature. TNF levels in the plasma were determined by ELISA as described above.
IgG from α-GAPDH #4418 antiserum was purified using protein A/G sepharose (Pierce). Purified IgG was used to test for the ability of α-GAPDH #4418 to neutralize GAPDH activity. Six conditions were tested: GAPDH (10 μg/ml) alone, GAPDH plus non-specific rabbit IgG (100 ug/ml), GAPDH plus α-GAPDH #4418 (100 ug/ml), α-GAPDH #4418 alone, non-specific rabbit IgG alone. The GAPDH plus α-GAPDH #4418 treatment was pre-incubated at room temperature for 30 minutes prior to applying the mixture to the whole blood.

RAW264.7 cells = RAW264.7 cells challenged with GAPDH for cytokine (TNF) elicitation, ELISA; assay type: cell-based, murine; details: 50 μg/ml GAPDH, 4 hours, FIG. 2
Procedure: Murine macrophage-like RAW264.7 cells were obtained from the American Type Tissue collection (ATTC). The RAW264.7 cells were cultured in Dulbecco's Modified Essential Medium (DMEM) (Gibco) supplemented with 1% heat-inactivated fetal bovine serum (FBS) (BioWhittaker), and 2 mM L-glutamine, and 100 μg/ml penicillin and streptomycin (all from Sigma). Raw264.7 cultures were incubated at 37° C. under 5% CO2. The cells were serum-deprived in 1% FBS medium for the purpose of slowing the cell cycle to synchronize the cell population. Serum deprivation of the cells also limits available growth factors, minimizing the level of intracellular signaling in pathways that lead to the activation of mitogen-activated protein (MAP) kinases. It is interesting to note that immune challenges such as bacterial endotoxin (LPS) also activate MAP kinases to generate inflammatory responses, and thus high levels of FBS would interfere with the detection of MAP kinase signals that are elicited by the specific immune challenges that this study investigates. RAW264.7 cells were used at approximately 70% confluence, and all treatments were carried out in serum-free Opti-MEM I medium.
RAW264.7 cells at approximately 70% confluence were kept in serum-free Opti-MEM I for 20 minutes prior to treatments. […]

cultured macrophages = test: GST-GAPDH on cultured macrophages, inflammatory responses; assay type: cell-based; details: FIG. 7
mice = test: GST-GAPDH challenge in mice, clinical sickness scoring; assay type: in vivo; details: FIG. 9

| Substance | TNF release (Peritoneal macrophages; RAGE deficient macrophages) | TNF release (Peritoneal macrophages; TLR2 deficient macrophages) | TNF response (Peritoneal macrophages; TLR4 deficient macrophages) | TNF release (Peritoneal macrophages; wild type macrophages) | basal level of IκBα (degradation) (IκBα) | increase in activated JNK levels (JNK; 30 minutes after challenge) | increase in activated JNK levels (JNK; 60 minutes after challenge) | plasma TNF levels (human whole blood; 10 μg/ml challenge, four hours, human whole blood, FIG. 5) | TNF release (RAW264.7 cells) | inflammatory responses from cultured macrophages (cultured macrophages) | inflammatory cytokine response from human blood (human whole blood; FIG. 8) | interaction of inflammatory response with LPS (human whole blood; human blood, FIG. 8) | sickness by clinical scoring parameters (piloerection, closed eyes, diarrhea, tremoring, activity, relative temperature) (mice) |
| --- | --- | --- | --- | --- | --- | --- | --- | --- | --- | --- | --- | --- | --- |
| GAPDH: purified recombinant human GAPDH (produced on site), tested as candidate inflammatory cytokine | approximately 4500 pg TNF/mg cell protein | ~5000 pg TNF/mg cell protein | did not mount a significant response | approximately 6000 pg TNF/mg cellular protein | decreased dramatically and was nearly undetectable by 30 minutes post treatment | approximately eight-fold | approximately fifteen-fold | approximately 450 pg/ml | approximately 2250 pg/mg of cellular protein | – | – | – | – |
| GST-GAPDH: purified recombinant GST-GAPDH, a stable tetramer | – | – | – | – | – | – | – | – | – | elicits inflammatory responses | elicit inflammatory cytokine response | synergistic with LPS | cause sickness |
